Six compounds from patent US10787413B2, “Derivatives of curcuminoids and use thereof as an anticancer agent” (CHINA MEDICAL UNIVERSITY, priority 2016, dated 2020) can be followed below.

Molecules are shown by their SMILES. Like-named read-outs stand apart in the source and are kept apart here. Where only a bound is given, the exact number is not on record here.

In data set [1] the test system is HCT-116 colon cancer cell. The experiment in a line: MTT cell viability assay, HCT-116 colon cancer cell. It counts as cell-based. Conditions: Homo sapiens. Here is the method: (§1) Cell viability was evaluated by measuring the reduction in MTT to yield blue formazan. Cells were cultured in 96-well plates, allowed to attach overnight, and then treated with compounds. After treatment, MTT solution (1 mg/ml) was added to each well, and plates were incubated for another 4 h. Medium were removed, blue formazan was dissolved in DMSO, and the absorbance was read at 570 nm^20.
Background: Tetrazolium assays rely on reduction of a dye to a coloured formazan, in cell work by metabolically active cells.

Data set [2] deals with Doxorubicin-resistant MDA-MB-231. Put plainly: Cell viability, Doxorubicin-resistant MDA-MB-231. Type of data set: cell-based. Conditions: for IC50: Doxorubicin-resistant MDA-MB-231, treated for 24 h. How it is done: as §1
The nature of data set [3]: Preliminary acute toxicity assay. Conditions: oral 500 mg/kg/day for 5 consecutive days, 21 days observation, vs untreated control. Here is the method: Normal mice were treated with 21a or 35a by oral route at 500 mg/kg/day for 5 consecutive days, following by 21 days of post-treatment observation. […] Detailed data for their toxicology and safety pharmacology studies will be carried out in the near future.
Female nu/nu mice (5 weeks old) were P.O. with vehicle (propylene glycol, 0.1 ml) or high dose of 21a (250 and 500 mg/kg) and 35a (500 mg/kg) for 5 days followed by observation of behavior and lethargy for 21 days.

The subject of a further data set is PC3 prostate cancer cell. Put plainly: MTT cell viability assay, PC3 prostate cancer cell. It counts as cell-based. How it is done:
as §1

Data set [4] concerns MDA-MB-231 breast cancer cell. The experiment in a line: MTT cell viability assay, MDA-MB-231 breast cancer cell. Type of data set: cell-based, human. Conditions: for IC50: Homo sapiens. How it is done: Cell viability was evaluated by measuring the reduction in MTT to yield blue formazan. Cells were cultured in 96-well plates, allowed to attach overnight, and then treated with compounds. After treatment, MTT solution (1 mg/ml) was added to each well, and plates were incubated for another 4 h.

A further data set concerns MDA-MB-468. The experiment in a line: Cell viability, MDA-MB-468 breast cancer cells. It counts as cell-based. Conditions: Homo sapiens; MDA-MB-468 (Triple negative), treated for 24 h. Here is the method:
as §1

The subject of another data set is HS-578T. Put plainly: Cell viability, HS-578T breast cancer cells. It counts as cell-based. Conditions: Homo sapiens; HS-578T (Triple negative), treated for 24 h. How it is done:
as §1

The subject of another data set is T47D. Put plainly: Cell viability, T47D breast cancer cells. It counts as cell-based. Conditions: Homo sapiens; T47D (ER+/PR+), treated for 24 h. Here is the method:
as §1

In a further data set the test system is MDA-MB-453. Put plainly: Cell viability, MDA-MB-453 breast cancer cells. Conditions: Homo sapiens; MDA-MB-453 (Her-2+), treated for 24 h. Type of data set: cell-based. Here is the method:
as §1

A further data set concerns MDA-MB-157. Put plainly: Cell viability, MDA-MB-157 breast cancer cells. Type of data set: cell-based. Conditions: Homo sapiens; MDA-MB-157 (Triple negative), treated for 24 h. Here is the method:
as §1

For the next data set, the system named is BT-474. Put plainly: Cell viability, BT-474 breast cancer cells. It counts as cell-based. Conditions: Homo sapiens; BT-474 (Her-2+), treated for 24 h. Here is the method:
as §1

The test system of a further data set is MCF-7. Put plainly: Cell viability, MCF-7 breast cancer cells. It counts as cell-based. Conditions: Homo sapiens, MCF7; MCF-7 (ER+/PR+), treated for 24 h. Here is the method: as §1
A further data set has as its system SKBR-3. Put plainly: Cell viability, SKBR-3 breast cancer cells. Conditions: Homo sapiens, SK-BR-3; SKBR-3 (Her-2+), treated for 24 h. It counts as cell-based. Here is the method:
as §1

For data set [5], the system named is MDA-MB-231 Xenograft. Put plainly: In vivo antitumor activity, MDA-MB-231 Xenograft nude mice model. Conditions: treated vs untreated control group during antitumor evaluation. How it is done: Female nu/nu mice (5 weeks old) were from National Laboratory Animal Center, Taipei, Taiwan. Mice were maintained under the procedures and guidelines from the Institutional Animal Care and Use Committee of the National Health Research Institutes, Taipei, Taiwan. All experiments were supervised under the Institutional Animal Care and Use Committee, China Medical University, Taichung, Taiwan. MDA-MB-231 breast cancer cells (5×10^6 cells per mouse) were suspended in 0.1 ml of Matrigel solution (50% (v/v) Matrigel in PBS) and inoculated into the mammary fat pads of the mice. […] Compounds was administered P.O. once every day for 32 days. Tumor size and mouse body weight were measured once every 4 days, and tumor volume (mm3) was calculated using the equation: length×(width)^2×0.5. At the end of experiments, mice were sacrificed and tumor nodules were dissected and weighed.

Data set [6] has as its system MDA-MB-231 Xenograft. Conditions: Doxorubicin alone, IP 1 mg/kg/day.
Method: Female nu/nu mice (5 weeks old) were from National Laboratory Animal Center, Taipei, Taiwan. […] MDA-MB-231 breast cancer cells (5×10^6 cells per mouse) were suspended in 0.1 ml of Matrigel solution (50% (v/v) Matrigel in PBS) and inoculated into the mammary fat pads of the mice. […] Compounds was administered P.O. once every day for 32 days. Tumor size and mouse body weight were measured once every 4 days, and tumor volume (mm3) was calculated using the equation: length×(width)^2×0.5. At the end of experiments, mice were sacrificed and tumor nodules were dissected and weighed.
Setting [7] is: HCT-116, treated 24 hours, read-out: IC50 24 hours.
[8] abbreviates: HCT-116, treated 48 hours, read-out: IC50 48 hours.
[9] abbreviates: HCT-116, treated 72 hours, read-out: IC50 72 hours.
[10] abbreviates: PC-3, treated 24 hours, read-out: IC50 24 hours.
Where [11] appears, read: PC-3, treated 72 hours, read-out: IC50 72 hours.
[12] abbreviates: MDA-MB-231, 24 h, MDA-MB-231, treated 24 hours, read-out: IC50 24 hours.
[13] abbreviates: MDA-MB-231, 72 h, MDA-MB-231, treated 72 hours, read-out: IC50 72 hours.
Where [14] appears, read: PC-3, treated 48 hours, read-out: IC50 48 hours.

On to `COc1cc(/C=C/C(=O)C(C)(C)C(=O)/C=C/c2ccc(OC(=O)C(C)(CO)CO)c(OC)c2)ccc1OC(=O)C(C)(CO)CO` [Compound 35a, ((1E,6)-4,4-Dimethyl-3,5-dioxohept-1,6-diene-1,7-diyl)bis(2-methoxy-4,1-phenylene) bis(3-hydroxy-2-(hydroxymethyl)-2-methylpropanoate)], for which the half-maximal inhibitory concentration (IC50) in data set [1] (setting [7]) is 6.67 ± 0.43 µM; in [1] (setting [8]) it was 3.35 ± 0.09 µM; in data set [1] (setting [9]), 1.65 ± 0.16 µM; in [2] (Homo sapiens, MDA-MB-231, 24 h), 5.7 µM; in the data set on PC3 prostate cancer cell (setting [10]) it was 3.49 ± 0.4 µM; in the data set on PC3 prostate cancer cell (setting [11]), 1.76 ± 0.14 µM. Further, the IC50 in [4] (setting [12]) is 5.33 ± 0.69 µM; in [4] (setting [13]) it was 1.98 µM. Besides, the “times greater inhibitory activity than curcumin” value in data set [2] (Doxorubicin-resistant MDA-MB-231) came out at 10 times. Also, the “body weight and behavior change” value in data set [3] is “no significant difference”. For the same compound, in data set [4] (MDA-MB-231, 72 h treatment, curcumin IC50 16.23 μM), the “times more potent than curcumin (IC50)” value turned out to be 8.2 times.
Compound `CCC(CC)(C(=O)/C=C/c1ccc(OC(=O)C(C)(CO)CO)c(OC)c1)C(=O)/C=C/c1ccc(OC(=O)C(C)(CO)CO)c(OC)c1` [Compound 35b, ((1E,6E)-4,4-Diethyl-3,5-dioxohepta-1,6-diene-1,7-diyl)bis(2-methoxy-4,1-phenylene) bis(3-hydroxy-2-(hydroxymethyl)-2-methylpropanoate)] showed a melting point of 189 to 191 °C. Also, the IC50 in data set [1] (setting [7]) was 7.71 ± 0.03 µM. In addition, the IC50 in [1] (setting [9]) came to 1.74 ± 0.02 µM. The IC50 in the data set on PC3 prostate cancer cell (setting [10]) was 8.7 ± 0.14 µM. In addition, in the data set with PC3 prostate cancer cell (setting [14]), the concentration for half-maximal inhibition (IC50) was 3.67 ± 0.25 µM. The IC50 in the data set with PC3 prostate cancer cell (setting [11]) was determined as 2.16 ± 0.12 µM. Besides, the IC50 in data set [4] (setting [12]) amounted to 8.64 ± 0.27 µM. Moreover, the IC50 in data set [4] (setting [13]) was found to be 2 ± 0.02 µM.
Compound `C=CCC(CC=C)(C(=O)/C=C/c1ccc(OC(=O)C(C)(CO)CO)c(OC)c1)C(=O)/C=C/c1ccc(OC(=O)C(C)(CO)CO)c(OC)c1` [Compound 35e, ((1E,6E)-4,4-diallyl-3,5-dioxohepta-1,6-diene-1,7-diyl)bis(2-methoxy-4,1-phenylene) bis(3-hydroxy-2-(hydroxymethyl)-2-methylpropanoate)] gave a melting point of 195 to 197 °C. The concentration for half-maximal inhibition (IC50) in data set [1] (setting [7]) turned out to be 2.18 ± 0.22 µM. Further, in data set [1] (setting [9]), the 50% inhibitory concentration (IC50) stood at 0.71 ± 0.01 µM. For the same compound, the IC50 with PC3 prostate cancer cell (setting [10]) was 4.24 ± 0.18 µM. In addition, the IC50 in the data set on PC3 prostate cancer cell (setting [14]) is 3.54 ± 0.26 µM. Further, the concentration for half-maximal inhibition (IC50) in the data set on PC3 prostate cancer cell (setting [11]) came to 2.63 ± 0.77 µM. Besides, the IC50 in data set [4] (setting [12]) came to 9.02 ± 0.5 µM. Also, the half-maximal inhibitory concentration (IC50) in data set [4] (setting [13]) was determined as 0.71 µM.
In the case of `COc1cc(/C=C/C(=O)C(CO)(CO)C(=O)/C=C/c2ccc(OC(=O)C(C)(CO)CO)c(OC)c2)ccc1OC(=O)C(C)(CO)CO` [Compound 40, ((1E,6E)-4,4-bis(hydroxymethyl)-3,5-dioxohepta-1,6-diene-1,7-diyl)bis(2-methoxy-4-phenylene) bis(3-hydroxy-2-(hydroxymethyl)-2-methylpropanoate)], the melting point fell in the range of 234 to 237 °C. For the same compound, the IC50 in [1] (setting [7]) is greater than 100 µM. For the same compound, the half-maximal inhibitory concentration (IC50) in data set [1] (setting [8]) amounted to 69.1 ± 3.11 µM. In addition, the IC50 in data set [1] (setting [9]) is 58.04 ± 0.53 µM. The 50% inhibitory concentration (IC50) in the data set with PC3 prostate cancer cell (setting [10]) was greater than 100 µM. The IC50 in the data set on PC3 prostate cancer cell (setting [14]) was greater than 100 µM. The half-maximal inhibitory concentration (IC50) in the data set with PC3 prostate cancer cell (setting [11]) was 74.6 ± 2.04 µM. Also, the half-maximal inhibitory concentration (IC50) in data set [4] (setting [12]) was greater than 100 µM. In addition, the 50% inhibitory concentration (IC50) in data set [4] (MDA-MB-231, 48 h, MDA-MB-231, treated 48 hours, read-out: IC50 48 hours) is 84.9 ± 1.67 µM. For the same compound, the 50% inhibitory concentration (IC50) in [4] (setting [13]) came out at 57.9 ± 2.73 µM.
As for `COc1cc(/C=C/C(=O)/C=C(O)/C=C/c2ccc(O)c(OC)c2)ccc1O` [Curcumin, (E,E)-1,7-bis (4-hydroxy-3-methoxyphenyl)-1,6-heptadiene-3,5-dione], the IC50 turned out to be 42.9 ± 2.35 µM in the data set with MDA-MB-468; 55.5 ± 1.39 µM in the data set with HS-578T; 78 ± 11.2 µM in data set [1] (setting [7]); 26.3 ± 1.38 µM in data set [1] (setting [8]); 13.8 ± 0.5 µM in data set [1] (setting [9]); 47.9 ± 3.9 µM in the data set with T47D. Besides, the IC50 in the data set with MDA-MB-453 was 32.4 ± 1.41 µM; in the data set with MDA-MB-157, 40.4 ± 3.26 µM; in the data set on BT-474, 30.1 ± 1.42 µM; with MCF-7, 42.9 ± 2.36 µM; in the data set with SKBR-3, 42.8 ± 1.47 µM; in [2] it was 58.6 ± 4.03 µM. Also, the IC50 was 57.6 µM in [2] (Homo sapiens, MDA-MB-231, 24 h); 57.1 ± 10.1 µM with PC3 prostate cancer cell (setting [10]); 30 ± 0.72 µM in the data set on PC3 prostate cancer cell (setting [14]); 18.8 ± 1.31 µM with PC3 prostate cancer cell (setting [11]); 38.8 ± 3.35 µM in [4] (MDA-MB-231, 24 h, read-out: IC50 24 hours); 22.1 ± 2.97 µM in data set [4] (MDA-MB-231, 48 h, read-out: IC50 48 hours). Besides, the concentration for half-maximal inhibition (IC50) in data set [4] (MDA-MB-231, treated 72 hours, read-out: IC50 72 hours) worked out at 16.2 µM. For the same compound, the “body weight, behavior change and blood chemistry (serology detection)” value with MDA-MB-231 Xenograft [5] is given as “no significant difference”.
As to `COc1cccc2c1C(=O)c1c(O)c3c(c(O)c1C2=O)C[C@@](O)(C(=O)CO)C[C@@H]3O[C@H]1C[C@H](N)[C@H](O)[C@H](C)O1` [Doxorubicin, reference compound], the “reduction of MDA-MB-231 tumor weight compared with control group” value in the data set on MDA-MB-231 Xenograft [6] was 60%.

What is called IC50 is the point on the concentration scale where inhibition reaches its midpoint. A word on the melting point: it is the temperature of the solid-liquid transition.
